Assays:
rdCMV = assay: Shield-1 dependence of rdCMV replication; type: cell-based, cytomegalovirus; conditions: rdCMV in ARPE-19 cells and other human primary cells
From the text: Conversely, rdCMV should not replicate substantially in the absence of Shield-1. The quality of a replication defective mechanism is judged by how stringent the control is under the conditions not permissive for viral replication, i.e., the infectious titers of progeny virions under these conditions. The rdCMV described herein cannot replicate substantially (either in cell culture or within a patient) without Shield-1 present. Its replication in ARPE-19 cells and other types of human primary cells is conditional, and a molar concentration of Shield-1 greater than 0.1 μM, preferable at least 2 μM, in the culture medium is required to sustain viral replication.

FKBP = conditions: Clackson et al., 1998; cited from earlier work

CC[C@H](C(=O)N1CCCC[C@H]1C(=O)O[C@H](CCc1ccc(OC)c(OC)c1)c1cccc(OCCN2CCOCC2)c1)c1cc(OC)c(OC)c(OC)c1 [Shield-1]
molar concentration in the culture medium required to sustain viral replication (rdCMV): greater than 0.1 μM
binding to the F36V derivative compared to wild-type FKBP (tighter) (FKBP): about 1,000 fold
